In patent publication US20140371074A1, “METHOD TO INCREASE PLANT YIELD” (priority 2012, published 2014):

Legend:
Type in all cases: in vivo
[1] = test system: soybean Latham 2767 Roundup Ready; assay: Field: seed treatment with 2,4-D solution 1X-10X, Laurel, Iowa (Table 6); conditions: 1X~0.0002968 lb a.e.
Procedure: Previously untreated soybean seeds were treated with between 1X to 10X of 2,4-D solution, where 1X is equivalent to approximately 0.0002968 pounds acid equivalent of 2,4-D. The seed variety was Latham 2767 Roundup Ready seeds and seeds were planted in Laurel, Iowa with a row width of 30 inches. Plants were sprayed with foliar insecticide and fungicide.

[2] = test system: soybean cultivars L2084R2, L2711R2X; assay: Field 2012: 2,4-D Low Vol 4 + crop oil drizzled onto soil at R1 stage, Alexander, Iowa (Table 2a)
Procedure: Plants were treated by drizzling via low pressure spraying the 2,4-D solution onto the soil along each side of the rows when plants are at the R1 stage of growth. The date of planting was May 15, 2012 and the date of harvest was Oct. 2, 2012 at plots in Alexander, Iowa (Table 2a) and Laurel, Iowa (Table 2b). Plants were grown from Roundup Ready seed and were sprayed with glyphosate for weed control. Plants were treated with between 1X and 5.5X of 2,4-D solution mixed with crop oil at 15.3 ounces of 2,4-D Low Vol 4 plus 0.32 ounces crop oil per gallon, where 1X is equivalent to approximately 0.45 pounds acid equivalent of 2,4-D. Two repetitions were performed at different plots. […] The moisture percentages were used in correcting each yield to a 13% moisture basis.

[3] = test system: soybean variety Asgrow 2933; assay: Field: side dress with 2,4-D Low Vol 4 solution, Laurel, Iowa (Table 3); conditions: for Percent of control: yield vs untreated control
Procedure: Plants were grown from Roundup Ready variety Asgrow 2933 seed that was treated with accelron (Monsanto) prior to planting. Plants were side dressed by application with a 3-point cultivator modified to spray on the ground in front of the shanks, the shanks then mix the 2,4-D mixture with the soil and move the mixture closer to the plant roots. Plants were treated with between 1X and 4X of 2,4-D Low Vol 4 solution, where 1X is equivalent to approximately 0.19 pounds acid equivalent of 2,4-D. Plants were grown with a row width of 30 inches and row length of 562 feet.

[4] = 1.0X Rate, L2084R2, 1X~0.45 lb a.e.
[5] = 1.0X Rate, L2711R2X, 1X~0.45 lb a.e.
[6] = 1.5X Rate, L2084R2, 1X~0.45 lb a.e.
[7] = 1.5X Rate, L2711R2X, 1X~0.45 lb a.e.
[8] = 2.0X Rate, L2084R2, 1X~0.45 lb a.e.
[9] = 2.0X Rate, L2711R2X, 1X~0.45 lb a.e.
[10] = 2.5X Rate, L2084R2, 1X~0.45 lb a.e.
[11] = 2.5X Rate, L2711R2X, 1X~0.45 lb a.e.
[12] = 3.0X Rate, L2084R2, 1X~0.45 lb a.e.
[13] = 3.0X Rate, L2711R2X, 1X~0.45 lb a.e.
[14] = 3.5X Rate, L2084R2, 1X~0.45 lb a.e.
[15] = 3.5X Rate, L2711R2X, 1X~0.45 lb a.e.
[16] = 4.0X Rate, L2084R2, 1X~0.45 lb a.e.
[17] = 4.0X Rate, L2711R2X, 1X~0.45 lb a.e.
[18] = 4.5X Rate, L2084R2, 1X~0.45 lb a.e.
[19] = 4.5X Rate, L2711R2X, 1X~0.45 lb a.e.
[20] = 5.0X Rate, L2084R2, 1X~0.45 lb a.e.
[21] = 5.0X Rate, L2711R2X, 1X~0.45 lb a.e.
[22] = 5.5X Rate, L2084R2, 1X~0.45 lb a.e.
[23] = 5.5X Rate, L2711R2X, 1X~0.45 lb a.e.
[24] = Average over 1.0X-3.0X Rates, L2084R2
[25] = Average over 1.0X-3.0X Rates, L2711R2X
[26] = Average over 1.0X-5.5X Rates, L2084R2
[27] = Average over 1.0X-5.5X Rates, L2711R2X
[28] = Overall location average, all rates, both cultivars
[29] = 1X side dress (1X~0.19 lb a.e.)
[30] = 2X side dress (1X~0.19 lb a.e.)
[31] = 3X side dress (1X~0.19 lb a.e.)
[32] = 4X side dress (1X~0.19 lb a.e.)

## O=C(O)COc1ccc(Cl)cc1Cl [2,4-D, 2,4-Dichlorophenoxyacetic acid]
[1]; 1X seed treatment
  Harvested weight: 125 g
  Yield (Bushels/acre at 13% moisture): 60.71 Bushels/acre
[1]; 2X seed treatment
  Harvested weight: 90 g
  Yield (Bushels/acre at 13% moisture): 42.26 Bushels/acre
[1]; 3X seed treatment
  Harvested weight: 100 g
  Yield (Bushels/acre at 13% moisture): 45.23 Bushels/acre
[1]; 4X seed treatment
  Harvested weight: 100 g
  Yield (Bushels/acre at 13% moisture): 44.23 Bushels/acre
[1]; 5X seed treatment
  Harvested weight: 105 g
  Yield (Bushels/acre at 13% moisture): 45.33 Bushels/acre
[1]; 6X seed treatment
  Harvested weight: 110 g
  Yield (Bushels/acre at 13% moisture): 48.22 Bushels/acre
[1]; 7X seed treatment
  Harvested weight: 105 g
  Yield (Bushels/acre at 13% moisture): 44.36 Bushels/acre
[1]; 8X seed treatment
  Harvested weight: 110 g
  Yield (Bushels/acre at 13% moisture): 46.32 Bushels/acre
[1]; 9X seed treatment
  Harvested weight: 100 g
  Yield (Bushels/acre at 13% moisture): 43.06 Bushels/acre
[1]; 10X seed treatment
  Harvested weight: 95 g
  Yield (Bushels/acre at 13% moisture): 42.12 Bushels/acre
[2]; [4]
  Average Yield: 47.77 Bu/A
  Repetition 1 Weight: 4.3 Lbs
  Repetition 1 Yield: 49.06 Bu/A
  Repetition 2 Weight: 4.1 Lbs
  Repetition 2 Yield: 46.48 Bu/A
[2]; [5]
  Average Yield: 46.66 Bu/A
  Repetition 1 Weight: 3.7 Lbs
  Repetition 1 Yield: 42.30 Bu/A
  Repetition 2 Weight: 4.5 Lbs
  Repetition 2 Yield: 51.02 Bu/A
[2]; [6]
  Average Yield: 47.65 Bu/A
  Repetition 1 Weight: 3.4 Lbs
  Repetition 1 Yield: 38.79 Bu/A
  Repetition 2 Weight: 5 Lbs
  Repetition 2 Yield: 56.51 Bu/A
[2]; [7]
  Average Yield: 52.85 Bu/A
  Repetition 1 Weight: 3.9 Lbs
  Repetition 1 Yield: 44.54 Bu/A
  Repetition 2 Weight: 5.4 Lbs
  Repetition 2 Yield: 61.16 Bu/A
[2]; [8]
  Average Yield: 51.64 Bu/A
  Repetition 1 Weight: 4.5 Lbs
  Repetition 1 Yield: 51.23 Bu/A
  Repetition 2 Weight: 4.6 Lbs
  Repetition 2 Yield: 52.04 Bu/A
[2]; [9]
  Repetition 2 Weight: 4.1 Lbs
  Repetition 2 Yield: 46.43 Bu/A
[2]; 2.0X Rate, L2711R2X, 1X~0.45 lb a.e., repetition 2 only
  Average Yield: 46.43 Bu/A
[2]; [10]
  Average Yield: 38.59 Bu/A
  Repetition 1 Weight: 3.1 Lbs
  Repetition 1 Yield: 35.37 Bu/A
  Repetition 2 Weight: 3.7 Lbs
  Repetition 2 Yield: 41.81 Bu/A
[2]; [11]
  Average Yield: 39.75 Bu/A
  Repetition 1 Weight: 3.1 Lbs
  Repetition 1 Yield: 35.29 Bu/A
  Repetition 2 Weight: 3.9 Lbs
  Repetition 2 Yield: 44.21 Bu/A
[2]; [12]
  Average Yield: 43.14 Bu/A
  Repetition 1 Weight: 3.5 Lbs
  Repetition 1 Yield: 39.89 Bu/A
  Repetition 2 Weight: 4.1 Lbs
  Repetition 2 Yield: 46.38 Bu/A
[2]; [13]
  Average Yield: 45.36 Bu/A
  Repetition 1 Weight: 3.7 Lbs
  Repetition 1 Yield: 42.08 Bu/A
  Repetition 2 Weight: 4.3 Lbs
  Repetition 2 Yield: 48.65 Bu/A
[2]; [14]
  Repetition 1 Weight: 3.4 Lbs
  Repetition 1 Yield: 38.55 Bu/A
[2]; 3.5X Rate, L2084R2, 1X~0.45 lb a.e., repetition 1 only
  Average Yield: 38.55 Bu/A
[2]; [15]
  Repetition 1 Weight: 4.2 Lbs
  Repetition 1 Yield: 47.77 Bu/A
[2]; 3.5X Rate, L2711R2X, 1X~0.45 lb a.e., repetition 1 only
  Average Yield: 47.77 Bu/A
[2]; [16]
  Repetition 1 Weight: 4.5 Lbs
  Repetition 1 Yield: 51.07 Bu/A
[2]; 4.0X Rate, L2084R2, 1X~0.45 lb a.e., repetition 1 only
  Average Yield: 51.07 Bu/A
[2]; [17]
  Repetition 1 Weight: 5.4 Lbs
  Repetition 1 Yield: 61.28 Bu/A
[2]; 4.0X Rate, L2711R2X, 1X~0.45 lb a.e., repetition 1 only
  Average Yield: 61.28 Bu/A
[2]; [18]
  Repetition 1 Weight: 4.7 Lbs
  Repetition 1 Yield: 53.28 Bu/A
[2]; 4.5X Rate, L2084R2, 1X~0.45 lb a.e., repetition 1 only
  Average Yield: 53.28 Bu/A
[2]; [19]
  Repetition 1 Weight: 4.7 Lbs
  Repetition 1 Yield: 53.40 Bu/A
[2]; 4.5X Rate, L2711R2X, 1X~0.45 lb a.e., repetition 1 only
  Average Yield: 53.40 Bu/A
[2]; [20]
  Repetition 1 Weight: 4.1 Lbs
  Repetition 1 Yield: 46.58 Bu/A
[2]; 5.0X Rate, L2084R2, 1X~0.45 lb a.e., repetition 1 only
  Average Yield: 46.58 Bu/A
[2]; [21]
  Repetition 1 Weight: 4.3 Lbs
  Repetition 1 Yield: 48.90 Bu/A
[2]; 5.0X Rate, L2711R2X, 1X~0.45 lb a.e., repetition 1 only
  Average Yield: 48.90 Bu/A
[2]; [22]
  Repetition 1 Weight: 4.2 Lbs
  Repetition 1 Yield: 47.67 Bu/A
[2]; 5.5X Rate, L2084R2, 1X~0.45 lb a.e., repetition 1 only
  Average Yield: 47.67 Bu/A
[2]; [23]
  Repetition 1 Weight: 4.1 Lbs
  Repetition 1 Yield: 46.48 Bu/A
[2]; 5.5X Rate, L2711R2X, 1X~0.45 lb a.e., repetition 1 only
  Average Yield: 46.48 Bu/A
[2]; [24]
  Repetition 2 Weight: 4.3 Lbs
  Repetition 2 Yield: 48.65 Bu/A
[2]; [25]
  Repetition 2 Weight: 4.4 Lbs
  Repetition 2 Yield: 50.29 Bu/A
[2]; [26]
  Average Yield: 46.59 Bu/A
  Repetition 1 Weight: 4.0 Lbs
  Repetition 1 Yield: 45.15 Bu/A
[2]; [27]
  Average Yield: 48.89 Bu/A
  Repetition 1 Weight: 4.1 Lbs
  Repetition 1 Yield: 46.89 Bu/A
[2]; [28]
  Average Yield: 47.74 Bu/A
  Repetition 1 Weight: 4.0 Lbs
  Repetition 1 Yield: 45.97 Bu/A
  Repetition 2 Weight: 4.4 Lbs
  Repetition 2 Yield: 49.47 Bu/A
[2]; Table 2a, 2,4-D mixture 1.0X-5.5X vs untreated
  plant yield (in words): increases plant yield
[3]; [29]
  Yield (Bushels/acre at 13% moisture): 58.3 Bushels/acre
  Percent of control: 110%
[3]; 1X side dress (1X~0.19 lb a.e.), 12 rows
  Harvested weight: 1292 g
[3]; [30]
  Yield (Bushels/acre at 13% moisture): 68.3 Bushels/acre
  Percent of control: 130%
[3]; 2X side dress (1X~0.19 lb a.e.), 8 rows
  Harvested weight: 1016 g
[3]; [31]
  Yield (Bushels/acre at 13% moisture): 62.8 Bushels/acre
  Percent of control: 120%
[3]; 3X side dress (1X~0.19 lb a.e.), 16 rows
  Harvested weight: 1844 g
[3]; [32]
  Yield (Bushels/acre at 13% moisture): 70.8 Bushels/acre
  Percent of control: 135%
[3]; 4X side dress (1X~0.19 lb a.e.), 16 rows
  Harvested weight: 2088 g
[3]; side dress treatment 1X-4X vs untreated
  plant yield (in words): greatly increases plant yield
